Laboratory results published in patent publication US8742138B2, “Compounds as hypoxia mimetics, and compositions and uses thereof” (Betta Pharmaceuticals Co., Ltd., priority 2009, dated 2014).

Molecular target: HIF-PHD2 (Homo sapiens (Human), UniProt Q9GZT9)
Test: Assay of HIF-PHD2 Enzyme Activity (TR-FRET)
Assay type: biochemical
Settings: 600 nM full length PHD2, 0.2 μM 2-oxoglutarate, 0.5 μM HIF-1α peptide
Description: HIF-PHD2 activity was measured using homogeneous TR-FRET technology (see also, US2008/004817; Dao J H et al., Anal Biochem. 2009, 384:213-23). To each well of a ½Area 96-well plate was added 2 μL of test compound in DMSO and 40 μL of assay buffer (50 mM Tris PH7.4/0.01% Tween-20/0.1 mg/ml BSA/1 mM Sodium ascorbate/20 μg/ml Catalase/10 μM FeSO4) containing 600 nM full length PHD2. After a 30 min preincubation at room temperature, the enzymatic reactions were initiated by the addition of 8 μL of substrates (final concentrations of 0.2 μM 2-oxoglutarate and 0.5 μM HIF-1α peptide biotinyl-[…]). After 2 hr at room temperature, the reactions were terminated and signals were developed by the addition of a 50 μL quench/detection mix to a final concentration of 1 mM ortho-phenanthroline, 0.1 mM EDTA, 0.5 nM anti-(His)6LANCE reagent, 100 nM AF647-labeled Streptavidin, and 30 nM (His)6-VHL-elonginB-elonginC complex. The ratio of time resolved fluorescence signals at 665 and 620 nm was determined, and percent inhibition was calculated relative to an uninhibited control sample run in parallel.

Chain of HIF-PHD2 (Q9GZT9 whole entry): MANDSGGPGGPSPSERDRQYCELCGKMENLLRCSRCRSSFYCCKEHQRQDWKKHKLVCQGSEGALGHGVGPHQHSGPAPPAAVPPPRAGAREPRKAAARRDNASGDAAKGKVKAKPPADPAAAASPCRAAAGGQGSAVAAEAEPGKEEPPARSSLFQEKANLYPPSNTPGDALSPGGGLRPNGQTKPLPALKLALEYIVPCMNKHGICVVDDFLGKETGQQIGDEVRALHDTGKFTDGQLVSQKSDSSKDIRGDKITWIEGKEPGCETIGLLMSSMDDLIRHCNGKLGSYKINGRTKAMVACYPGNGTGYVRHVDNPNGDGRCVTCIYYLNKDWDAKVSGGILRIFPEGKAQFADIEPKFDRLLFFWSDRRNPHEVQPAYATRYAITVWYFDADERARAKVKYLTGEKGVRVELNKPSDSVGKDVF

Compound	IC50 [nM]
O=C(O)CNC(=O)c1c(O)c2ccc(-c3ccccc3)cc2oc1=O [Example 1, N-[(4-hydroxy-2-oxo-7-phenyl-2H-3-chromenyl)carbonyl]glycine]	250
O=C(O)CNC(=O)c1c(O)c2ccc(-c3ccccc3Cl)cc2oc1=O [Example 2, N-[(4-hydroxy-2-oxo-7-(2-chloro-phenyl)-2H-3-chromenyl)carbonyl]glycine]	150
O=C(O)CNC(=O)c1c(O)c2ccc(-c3cccc(Cl)c3)cc2oc1=O [Example 3, N-[(4-hydroxy-2-oxo-7-(3-chloro-phenyl)-2H-3-chromenyl)carbonyl]glycine]	150
O=C(O)CNC(=O)c1c(O)c2ccc(-c3ccc(Cl)cc3)cc2oc1=O [Example 4, N-[(4-hydroxy-2-oxo-7-(4-chloro-phenyl)-2H-3-chromenyl)carbonyl]glycine]	150
O=C(O)CNC(=O)c1c(O)c2ccc(-c3cccc(C(F)(F)F)c3)cc2oc1=O [Example 5, N-[(4-hydroxy-2-oxo-7-(3-trifluoromethyl-phenyl)-2H-3-chromenyl)carbonyl]glycine]	150
O=C(O)CNC(=O)c1c(O)c2ccc(-c3ccc(C(F)(F)F)cc3)cc2oc1=O [Example 6, N-[(4-hydroxy-2-oxo-7-(4-trifluoromethyl-phenyl)-2H-3-chromenyl)carbonyl]glycine]	150
O=C(O)CNC(=O)c1c(O)c2ccc(-c3cccc(OC(F)(F)F)c3)cc2oc1=O [Example 7, N-[(4-hydroxy-2-oxo-7-(3-trifluoromethoxy-phenyl)-2H-3-chromenyl)carbonyl]glycine]	150
O=C(O)CNC(=O)c1c(O)c2ccc(-c3ccc(OC(F)(F)F)cc3)cc2oc1=O [Example 8, N-[(4-hydroxy-2-oxo-7-(4-trifluoromethoxy-phenyl)-2H-3-chromenyl)carbonyl]glycine]	150
O=C(O)CNC(=O)c1c(O)c2ccc(-c3ccc(Cl)c(Cl)c3)cc2oc1=O [Example 9, N-[(4-hydroxy-2-oxo-7-(3,4-dichloro-phenyl)-2H-3-chromenyl)carbonyl]glycine]	150
O=C(O)CNC(=O)c1c(O)c2ccc(-c3ccc(F)c(F)c3)cc2oc1=O [Example 10, N-[(4-hydroxy-2-oxo-7-(3,4-difluoro-phenyl)-2H-3-chromenyl)carbonyl]glycine]	150
O=C(O)CNC(=O)c1c(O)c2ccc(-c3cc(F)c(F)c(F)c3)cc2oc1=O [Example 11, N-[(4-hydroxy-2-oxo-7-(3,4,5-trifluoro-phenyl)-2H-3-chromenyl)carbonyl]glycine]	150
COc1cccc(-c2ccc3c(O)c(C(=O)NCC(=O)O)c(=O)oc3c2)c1 [Example 12, N-[(4-hydroxy-2-oxo-7-(3-methoxy-phenyl)-2H-3-chromenyl)carbonyl]glycine]	150
COc1ccc(-c2ccc3c(O)c(C(=O)NCC(=O)O)c(=O)oc3c2)cc1 [Example 13, N-[(4-hydroxy-2-oxo-7-(4-methoxy-phenyl)-2H-3-chromenyl)carbonyl]glycine]	150
Cc1cccc(-c2ccc3c(O)c(C(=O)NCC(=O)O)c(=O)oc3c2)c1 [Example 14, N-[(4-hydroxy-2-oxo-7-(3-methylphenyl)-2H-3-chromenyl)carbonyl]glycine]	300
Cc1ccc(-c2ccc3c(O)c(C(=O)NCC(=O)O)c(=O)oc3c2)cc1 [Example 15, N-[(4-hydroxy-2-oxo-7-(4-methylphenyl)-2H-3-chromenyl)carbonyl]glycine]	150
O=C(O)CNC(=O)c1c(O)c2cccc(-c3ccccc3)c2oc1=O [Example 16, N-[(4-hydroxy-2-oxo-8-phenyl-2H-3-chromenyl)carbonyl]glycine]	350

The remaining lines, values ahead:

IC50 [nM]	Compound
200	O=C(O)CNC(=O)c1c(O)c2cccc(-c3ccccc3Cl)c2oc1=O [Example 17, N-[(4-hydroxy-2-oxo-8-(2-chlorophenyl)-2H-3-chromenyl)carbonyl]glycine]
90	O=C(O)CNC(=O)c1c(O)c2cccc(-c3cccc(Cl)c3)c2oc1=O [Example 18, N-[(4-hydroxy-2-oxo-8-(3-chlorophenyl)-2H-3-chromenyl)carbonyl]glycine]
150	O=C(O)CNC(=O)c1c(O)c2cccc(-c3ccc(Cl)cc3)c2oc1=O [Example 19, N-[(4-hydroxy-2-oxo-8-(4-chlorophenyl)-2H-3-chromenyl)carbonyl]glycine]
100	O=C(O)CNC(=O)c1c(O)c2cccc(-c3cccc(C(F)(F)F)c3)c2oc1=O [Example 20, N-[(4-hydroxy-2-oxo-8-(3-trifluoromethylphenyl)-2H-3-chromenyl)carbonyl]glycine]
90	O=C(O)CNC(=O)c1c(O)c2cccc(-c3ccc(C(F)(F)F)cc3)c2oc1=O [Example 21, N-[(4-hydroxy-2-oxo-8-(4-trifluoromethylphenyl)-2H-3-chromenyl)carbonyl]glycine]
100	O=C(O)CNC(=O)c1c(O)c2cccc(-c3cccc(OC(F)(F)F)c3)c2oc1=O [Example 22, N-[(4-hydroxy-2-oxo-8-(3-trifluoromethoxyphenyl)-2H-3-chromenyl)carbonyl]glycine]
150	O=C(O)CNC(=O)c1c(O)c2cccc(-c3ccc(OC(F)(F)F)cc3)c2oc1=O [Example 23, N-[(4-hydroxy-2-oxo-8-(4-trifluoromethoxyphenyl)-2H-3-chromenyl)carbonyl]glycine]
30	O=C(O)CNC(=O)c1c(O)c2cccc(-c3ccc(Cl)c(Cl)c3)c2oc1=O [Example 24, N-[(4-hydroxy-2-oxo-8-(3,4-dichlorophenyl)-2H-3-chromenyl)carbonyl]glycine]
150	O=C(O)CNC(=O)c1c(O)c2cccc(-c3ccc(F)c(F)c3)c2oc1=O [Example 25, N-[(4-hydroxy-2-oxo-8-(3,4-difluorophenyl)-2H-3-chromenyl)carbonyl]glycine]
150	O=C(O)CNC(=O)c1c(O)c2cccc(-c3cc(F)c(F)c(F)c3)c2oc1=O [Example 26, N-[(4-hydroxy-2-oxo-8-(3,4,5-trifluorophenyl)-2H-3-chromenyl)carbonyl]glycine]
150	COc1cccc(-c2cccc3c(O)c(C(=O)NCC(=O)O)c(=O)oc23)c1 [Example 27, N-[(4-hydroxy-2-oxo-8-(3-methoxyphenyl)-2H-3-chromenyl)carbonyl]glycine]
80	COc1ccc(-c2cccc3c(O)c(C(=O)NCC(=O)O)c(=O)oc23)cc1 [Example 28, N-[(4-hydroxy-2-oxo-8-(4-methoxyphenyl)-2H-3-chromenyl)carbonyl]glycine]
150	Cc1cccc(-c2cccc3c(O)c(C(=O)NCC(=O)O)c(=O)oc23)c1 [Example 29, N-[(4-hydroxy-2-oxo-8-(3-methylphenyl)-2H-3-chromenyl)carbonyl]glycine]
80	Cc1ccc(-c2cccc3c(O)c(C(=O)NCC(=O)O)c(=O)oc23)cc1 [Example 30, N-[(4-hydroxy-2-oxo-8-(4-methylphenyl)-2H-3-chromenyl)carbonyl]glycine]
200	O=C(O)CNC(=O)c1c(O)c2ccc(-c3cccnc3)cc2oc1=O [Example 33, N-[(4-hydroxy-2-oxo-7-(pyridin-3-yl)-2H-3-chromenyl)carbonyl]glycine]
150	O=C(O)CNC(=O)c1c(O)c2ccc(Oc3ccccc3)cc2oc1=O [Example 34, N-[(4-hydroxy-2-oxo-7-phenoxy-2H-3-chromenyl)carbonyl]glycine]
150	O=C(O)CNC(=O)c1c(O)c2ccc(Br)cc2oc1=O [Example 35, N-[(4-hydroxy-2-oxo-7-bromo-3-chromenyl)carbonyl]glycine]
300	O=C(O)CNC(=O)c1c(O)c2cccc(Br)c2oc1=O [Example 36, N-[(4-hydroxy-2-oxo-8-bromo-3-chromenyl)carbonyl]glycine]
700	O=C(O)CNC(=O)c1c(O)c2cc(Br)ccc2oc1=O [Example 37, N-[(4-hydroxy-2-oxo-6-bromo-3-chromenyl)carbonyl]glycine]
